According to US10023593B2, “ALK kinase inhibitor, and preparation method and uses thereof” (BEIJING PEARL BIOTECHNOLOGY LIMITED LIABILITY COMPANY, priority 2014, dated 2018):

What follows are compounds tested on NCI-H2228 cell line (assay: CellTiter-Glo cell proliferation inhibition on NCI-H2228 cell line). Conditions: Homo sapiens, 96 h, NCI-H2228 cells, 5000 cells/well, 4 days drug treatment.
Assay type: cell-based
Description: 3. Cell Proliferation Inhibitory Activities of the Compounds of the Present Invention on NCI-H2228 Cell Line
? experimental method ? CellTiter-Glo® Luminescent Cell Viability Assay kit from Promega company was used to detect cell proliferation inhibitory activities of the compounds on NCI-H2228 cell line.
? instrument ? Envision 2104 plate reader from PerKinElmer company; Vi-Cell XR cell counter from Beckman Counter company; MCO-18AIC CO2 incubator from SANYO company.
? experiment material ? CellTiter-Glo® Luminescent Cell Viability Assay Kit (Promega company, catalog No. G7573); NCI-H2228 cell line (ATCC, catalog No. CRL-5935); RPMI-1640 medium (HyClone company, catalog No. SH30809.01B); fetal bovine serum (FBS) (Gibco company, catalog No. 10099-141); trypsin (Trypsin) (Gibco company, catalog No. 25200-072); PBS (HyClone company, catalog No. SH30256.01B); 96 wells cell culture plate (Corning company, catalog No. 3610); DMSO (AMRESCO company, catalog No. 0231); 96 wells plates (for diluting compounds) (CITOTEST company, catalog No. Ref36020096D);
? experimental condition ? NCI-H2228 cells in exponential growth phase were collected and treated with trypsin (Trypsin), and viable cells were counted by Vi-Cell XR cell counter. Cell suspension was adjusted to 62500 cells/ml with culture medium (RPMI-1640+10% FBS). 80 μl cell suspension was added into each well of 96 wells cell culture plate so that the final cell number of NCI-H2228 cells was 5000 cells/well. The cells were cultivated in an incubator with an atmosphere of 37° C., 5% CO2 and 95% humidity for 2 hours and then each well was added with 20 μl compounds in RPMI-1640 medium solution (the final concentration of DMSO was 0.5%). 4 days after drug treatment, each well was added with 50 μl CellTiter-Glo solution which was previously thawed and equilibrated to room temperature, and mixed for 2 minutes with microplate shaker. After placing at room temperature for 10 minutes, luminescence value was measured by PerkinElmer Envision 2104 plate reader and the data was analyzed.
? tested samples ? Compounds of the examples.
? data analysis ? Luminescence value of DMSO solvent control (Vvehicle control, which is the mean luminescence value from DMSO solvent control group)
Tested luminescence value (Vsample, which is the luminescence value from given concentration of compounds group) Inhibition rate (%)=(1−Vsample/Vvehicle control)×100
? data processing ? IC50 of compounds was calculated by using XLfit program in Excel.
For `Cc1cc(Nc2ncc(Cl)c(Nc3cn(C)nc3S(=O)(=O)C(C)C)n2)c(OC2CC2)cc1C1CCN(C2CCN(C)CC2)CC1` [Final product 158, 5-chloro-N^2-(2-cyclopropoxy-5-methyl-4-(1-(1-methyl-piperidin-4-yl)piperidin-4-yl)phenyl)-N^4-(3-(isopropylsulfonyl)-1-methyl-1H-pyrazol-4-yl)pyrimidin-2,4-diamine], the IC50 was 170 nM.

Same assay, conditions: Homo sapiens, NCI-H2228, 96 h, NCI-H2228 cells, 5000 cells/well, 4 days drug treatment
In the case of `Cc1cc(Nc2ncc(Cl)c(Nc3cn(C)nc3S(=O)(=O)C3CCC3)n2)c(OC(C)C)cc1C1CCN(C)CC1` [Final product 86], the IC50 is reported as 120 nM. Compound `CCN1CCCC(c2cc(OC3CC3)c(Nc3ncc(Cl)c(Nc4cn(C)nc4S(=O)(=O)CC(C)C)n3)cc2C)C1` (stereo not drawn) [Final product 121] has an IC50 of 168 nM. `Cc1cc(Nc2ncc(Cl)c(Nc3cn(C)nc3S(=O)(=O)C(C)C)n2)c(OC2CC2)cc1[C@H]1CC[C@@H](NCCN(C)C)CC1` [Final product 199] was tested, and the IC50 was 225 nM. `Cc1cc(Nc2ncc(Cl)c(Nc3cn(C)nc3S(=O)(=O)C(C)C)n2)c(OC2CC2)cc1OC1CN(C)C1` [Final product 76] gave an IC50 of 215 nM. `CC(C)S(=O)(=O)c1nn(C)cc1Nc1nc(Nc2cc3c(cc2OC2CC2)CN(C)CC3)ncc1Cl` [Final product 112] was tested, and the IC50 was 211 nM. With `CCN1CCCC(c2cc(OC(C)C)c(Nc3ncc(Cl)c(Nc4cn(C)nc4S(=O)(=O)C(C)C)n3)cc2C)C1` (stereo not drawn) [Final product 119] the IC50 was 193 nM. With `Cc1cc(Nc2ncc(Cl)c(Nc3cn(C)nc3S(=O)(=O)C(C)C)n2)c(OC(C)C)cc1[C@H]1CC[C@H](NC2CC2)CC1` [Final product 186] the IC50 was 253 nM. Work on `Cc1cc(Nc2ncc(Cl)c(Nc3cn(C)nc3S(=O)(=O)C(C)C)n2)c(OC(C)C)cc1[C@H]1CC[C@@H](NC2CC2)CC1` [Final product 185] yielded an IC50 of 296 nM. `Cc1cc(Nc2ncc(Cl)c(Nc3cn(C)nc3S(=O)(=O)C(C)C)n2)c(OC2CC2)cc1C1CCC(N2CCCC2)CC1` (stereo not drawn) [Final product 201] showed an IC50 of 149 nM. Compound `Cc1cc(Nc2ncc(Cl)c(Nc3cn(C)nc3S(=O)(=O)C(C)C)n2)c(OC(C)C)cc1[C@H]1CC[C@@H](NC(C)C)CC1` [Final product 187] has an IC50 of 111 nM. `Cc1cc(Nc2ncc(Cl)c(Nc3cn(C)nc3S(=O)(=O)C(C)C)n2)c(OC2CC2)cc1[C@H]1CC[C@H](NC(=O)C2CC2)CC1` [Final product 207, N-(4-(4-(5-chloro-4-(3-(isopropylsulfonyl)-1-methyl-1H-pyrazol-4-amine)pyrimidin-2-amine)-5-cyclopropoxy-2-methylphenyl)cyclohexyl) cyclopropyl carboxamide] showed an IC50 of 154 nM. `Cc1cc(Nc2ncc(Cl)c(Nc3cn(C)nc3S(=O)(=O)CC(C)C)n2)c(OC2CC2)cc1C1CCCN(C)C1` (stereo not drawn) [Final product 61] showed an IC50 of 85 nM. With `Cc1cc(Nc2ncc(Cl)c(Nc3cn(C)nc3S(=O)(=O)C(C)C)n2)c(OC2CCC2)cc1C1CCN(C(C)C)CC1` [Final product 131] the IC50 was 52 nM. With `Cc1cc(Nc2ncc(Cl)c(Nc3cn(C)nc3S(=O)(=O)C(C)C)n2)c(OC2CCC2)cc1C1CCN(C)CC1` [Final product 63] the IC50 was 31 nM. `COCCN1CCC(c2cc(OC(C)C)c(Nc3ncc(Cl)c(Nc4cn(C)nc4S(=O)(=O)C(C)C)n3)cc2C)CC1` [Final product 142, 5-chloro-N^2-(2-isopropoxy-4-(1-(2-methoxyethyl)piperidin-4-yl)-5-methyl-phenyl)-N^4-(3-(isopropylsulfonyl)-1-methyl-1H-pyrazol-4)-pyrimidin-2,4-diamine] was tested, and the IC50 was 140 nM. For `Cc1cc(Nc2ncc(Cl)c(Nc3cn(C)nc3S(=O)(=O)C(C)C)n2)c(OC2CC2)cc1C1CCCN(C)CC1` (stereo not drawn) [Final product 106], the IC50 was 34 nM. For `CCN1CCC(c2cc(OC3CCC3)c(Nc3ncc(Cl)c(Nc4cn(C)nc4S(=O)(=O)C(C)C)n3)cc2C)CC1` [Final product 122], the IC50 was 79 nM. Compound `CCN1CCCC(c2cc(OC3CC3)c(Nc3ncc(Cl)c(Nc4cn(C)nc4S(=O)(=O)C(C)C)n3)cc2C)C1` (stereo not drawn) [Final product 120] has an IC50 of 93 nM. With `COCC1CC(c2cc(OC(C)C)c(Nc3ncc(Cl)c(Nc4cn(C)nc4S(=O)(=O)C(C)C)n3)cc2C)CCN1C` (stereo not drawn) [Final product 78] the IC50 was 128 nM. `Cc1cc(Nc2ncc(Cl)c(Nc3cn(C)nc3S(=O)(=O)C(C)C)n2)c(OC(C)C)cc1C1CCCN(C(C)C)C1` (stereo not drawn) [Final product 128] gave an IC50 of 128 nM. `Cc1cc(Nc2ncc(Cl)c(Nc3cn(C)nc3S(=O)(=O)C(C)C)n2)c(OC2CC2)cc1C1CCN(C)C(C(=O)N(C)C)C1` (stereo not drawn) [Final product 101] gave an IC50 of 26 nM. `Cc1cc(Nc2ncc(Cl)c(Nc3cn(C)nc3S(=O)(=O)CC(C)C)n2)c(OC2CC2)cc1[C@H]1CC[C@@H](N(C)C)CC1` [Final product 175, 5-chloro-N^2-(2-cyclopropoxy4-(4-(dimethylamino)cyclohexyl)-5-methylphenyl)-N^4-(3-(isobutylsulfonyl)-1-methyl-1H-pyrazol-4-yl) pyrimidin-2,4-diamine] gave an IC50 of 256 nM. `Cc1cc(Nc2ncc(Cl)c(Nc3cn(C)nc3S(=O)(=O)C(C)C)n2)c(OC2CC2)cc1C1CCCN(C(C)(C)CO)C1` (stereo not drawn) [Final product 148] showed an IC50 of 44 nM. `COc1cc(C2CCN(C(C)C)CC2)c(C)cc1Nc1ncc(Cl)c(Nc2cn(C)nc2S(=O)(=O)C(C)C)n1` [Final product 124] showed an IC50 of 86 nM. Compound `Cc1cc(Nc2ncc(Cl)c(Nc3cn(C)nc3S(=O)(=O)CC(C)C)n2)c(OC2CC2)cc1C1CCCN(CCO)C1` (stereo not drawn) [Final product 140] has an IC50 of 105 nM. Work on `Cc1cc(Nc2ncc(Cl)c(Nc3cn(C)nc3S(=O)(=O)C(C)C)n2)c(OC2CC2)cc1C1CCN(CC(=O)N(C)C)CC1` [Final product 155, 2-(4-(4-(5-chloro-4-(3-(isopropoxysulfonyl)-1-methyl-1H-pyrazol-4-yl-amino)pyrimidin-2-yl-amine)-5-cyclopropoxy-2-methylphenyl)piperidin-1-yl)-N,N-dimethylacetamide] yielded an IC50 of 75 nM. `COc1cc(C2CCN(C)CC2)c(C)cc1Nc1ncc(Cl)c(Nc2cn(C)nc2S(=O)(=O)C(C)C)n1` [Final product 64] was tested, and the IC50 was 31 nM. In the case of `COCC(C)(C)N1CCC(c2cc(OC(C)C)c(Nc3ncc(Cl)c(Nc4cn(C)nc4S(=O)(=O)C(C)C)n3)cc2C)CC1` [Final product 85], the IC50 is reported as 77 nM. Work on `CCN1CCC(c2cc(OC3CC3)c(Nc3ncc(Cl)c(Nc4cn(C)nc4S(=O)(=O)CC(C)C)n3)cc2C)CC1` [Final product 117] yielded an IC50 of 158 nM. For `Cc1cc(Nc2ncc(Cl)c(Nc3cn(C)nc3S(=O)(=O)C(C)C)n2)c(OC2CCC2)cc1C1CCN(C(C)(C)CO)CC1` [Final product 153], the IC50 was 60 nM. For `CCOc1cc(C2CCN(C(C)(C)CO)CC2)c(C)cc1Nc1ncc(Cl)c(Nc2cn(C)nc2S(=O)(=O)C(C)C)n1` [Final product 150], the IC50 was 43 nM. With `Cc1cc(Nc2ncc(Cl)c(Nc3cn(C)nc3S(=O)(=O)CC(C)C)n2)c(OC2CC2)cc1C1CCN(C)C(=O)C1` (stereo not drawn) [Final product 104] the IC50 was 70 nM. `Cc1cc(Nc2ncc(Cl)c(Nc3cn(C)nc3S(=O)(=O)C(C)C)n2)c(OC2CC2)cc1C1CCS(=O)(=O)CC1` [Final product 110] showed an IC50 of 97 nM. For `CCN(CC)[C@H]1CC[C@H](c2cc(OC(C)C)c(Nc3ncc(Cl)c(Nc4cn(C)nc4S(=O)(=O)C(C)C)n3)cc2C)CC1` [Final product 184], the IC50 was 188 nM. `Cc1cc(Nc2ncc(C)c(Nc3cn(C)nc3S(=O)(=O)C(C)C)n2)c(OC(C)C)cc1C1CCN(C)CC1` [Final product 73] was tested, and the IC50 was 151 nM. For `Cc1cc(Nc2ncc(Cl)c(Nc3cn(C)nc3S(=O)(=O)C(C)C)n2)c(OC2CC2)cc1C1CCCCN1C` (stereo not drawn) [Final product 102], the IC50 was 103 nM. Work on `Cc1cc(Nc2ncc(Cl)c(Nc3cn(C)nc3S(=O)(=O)C(C)C)n2)c(OC2CC2)cc1C1CCN(C)CC1(C)C` (stereo not drawn) [Final product 99] yielded an IC50 of 58 nM. `CC(=O)N1CCN([C@H]2CC[C@@H](c3cc(OC4CC4)c(Nc4ncc(Cl)c(Nc5cn(C)nc5S(=O)(=O)C(C)C)n4)cc3C)CC2)CC1` [Final product 203] gave an IC50 of 189 nM.
